Assay [1] deals with Acetylcholinesterase (Electrophorus electricus) (UniProt O42275). Description: Ratio of tacrine IC50 to compound IC50 for electric eel AChE.
For assay [2], the target named is T1, Acetylcholinesterase (Electrophorus electricus, UniProt O42275).
Description: Inhibition of electric eel AChE preincubated for 30 mins prior to horseradish peroxidase, H2O2 and DETAPAC addition measured for 20 mins under ROS condition by Muraoka and Miura method
Assay [3] concerns the target T1, Acetylcholinesterase. This is another data set of the same source.
Description: Inhibition of electric eel AChE using acetylthiocholine as substrate preincubated for 10 mins prior to substrate addition measured every 30 seconds for 30 mins by Ellman's method
The target in assay [4] is Acetylcholinesterase (Electrophorus electricus) (UniProt O42275). The assay can be described thus: Non competitive inhibition of electric eel AChE using acetylthiocholine as substrate by Lineweaver-Burk plot analysis.
The target is the same in assay [5]. The assay can be described thus: Ratio of tacrine IC50 to compound IC50 for electric eel AChE in presence of horseradish peroxidase and H2O2 and DETAPAC.

The source made the active and inactive calls. No cut-off for these calls is given here.

T1 sequence (O42275 whole entry): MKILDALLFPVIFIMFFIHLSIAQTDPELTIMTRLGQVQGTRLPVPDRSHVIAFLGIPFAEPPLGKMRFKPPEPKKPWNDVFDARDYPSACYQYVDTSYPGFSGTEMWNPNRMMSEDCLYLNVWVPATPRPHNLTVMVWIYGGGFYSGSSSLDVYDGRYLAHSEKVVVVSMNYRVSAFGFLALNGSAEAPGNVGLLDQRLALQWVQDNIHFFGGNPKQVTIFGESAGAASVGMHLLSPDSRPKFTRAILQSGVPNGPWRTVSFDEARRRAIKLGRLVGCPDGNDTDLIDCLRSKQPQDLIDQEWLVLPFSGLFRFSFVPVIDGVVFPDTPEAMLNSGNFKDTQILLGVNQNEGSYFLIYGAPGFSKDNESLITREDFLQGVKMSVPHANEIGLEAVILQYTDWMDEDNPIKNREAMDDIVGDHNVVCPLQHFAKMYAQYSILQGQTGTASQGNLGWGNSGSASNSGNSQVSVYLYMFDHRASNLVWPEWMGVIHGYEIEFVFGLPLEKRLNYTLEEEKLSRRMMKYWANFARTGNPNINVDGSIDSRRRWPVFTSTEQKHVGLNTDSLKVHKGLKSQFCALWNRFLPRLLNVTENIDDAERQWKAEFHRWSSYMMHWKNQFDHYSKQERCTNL
Chain of Acetylcholinesterase (Electrophorus electricus) (O42275 24-633 limits assumed): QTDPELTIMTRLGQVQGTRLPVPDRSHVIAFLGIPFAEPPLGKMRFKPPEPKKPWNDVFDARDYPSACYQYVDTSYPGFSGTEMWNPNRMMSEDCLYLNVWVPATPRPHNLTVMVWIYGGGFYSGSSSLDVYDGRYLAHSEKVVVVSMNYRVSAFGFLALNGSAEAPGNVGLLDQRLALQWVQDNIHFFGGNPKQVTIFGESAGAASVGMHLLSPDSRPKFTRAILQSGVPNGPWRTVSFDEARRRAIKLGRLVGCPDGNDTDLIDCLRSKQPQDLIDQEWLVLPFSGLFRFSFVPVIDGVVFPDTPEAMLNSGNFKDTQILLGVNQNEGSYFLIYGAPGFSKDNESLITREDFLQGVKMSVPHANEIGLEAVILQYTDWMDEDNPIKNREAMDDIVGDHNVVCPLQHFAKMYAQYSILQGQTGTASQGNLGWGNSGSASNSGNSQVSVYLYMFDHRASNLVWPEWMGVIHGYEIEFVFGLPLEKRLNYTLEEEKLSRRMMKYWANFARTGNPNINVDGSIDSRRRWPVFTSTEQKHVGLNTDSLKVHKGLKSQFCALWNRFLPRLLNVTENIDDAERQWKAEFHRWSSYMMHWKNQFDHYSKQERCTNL

In the case of `CCCCCCCCNc1c2c(nc3cc(Cl)ccc13)CCCC2`, the Ratio IC50 in assay [1] was < 5. Further, the IC50 against Acetylcholinesterase [2] is 7.95 nM; against Acetylcholinesterase [3], 19.6 nM.

With `CCCCCCCNc1c2c(nc3cc(Cl)ccc13)CCCC2`, in assay [1], the Ratio IC50 came to 3. For the same compound, the inhibition entry in assay [4] was “Active”. In addition, the IC50 against Acetylcholinesterase [2] came to 2.03 nM; against Acetylcholinesterase [3] it was 16 nM.

Regarding `CCCCCNc1c2c(nc3cc(Cl)ccc13)CCCC2`, the Ratio IC50 in assay [1] was < 5. The IC50 against Acetylcholinesterase [2] was determined as 43.2 nM; at Acetylcholinesterase [3], 26.3 nM.

`Cc1cccc(Nc2ccccc2C(=O)NCCCCCCCCCCNc2c3c(nc4cc(Cl)ccc24)CCCC3)c1C`: the IC50 amounted to 1.85 nM against Acetylcholinesterase [2] and 0.776 nM against Acetylcholinesterase [3].

For the compound `NCCCCCCCCCCNc1c2c(nc3cc(Cl)ccc13)CCCC2`, the results for the Ratio IC50 in assay [5] and in assay [1] were 30 and 50, respectively. Further, the IC50 worked out at 2.18 nM against Acetylcholinesterase [2] and 0.932 nM against Acetylcholinesterase [3].

As to `Cc1cccc(Nc2ccccc2C(=O)NCCCCCCCCCCCCNc2c3c(nc4cc(Cl)ccc24)CCCC3)c1C`, the IC50 against Acetylcholinesterase [2] was found to be 16.2 nM; at Acetylcholinesterase [3], 2360 nM.

For `Cc1cccc(Nc2ccccc2C(=O)NCCC(=O)NCCCCCCNc2c3c(nc4cc(Cl)ccc24)CCCC3)c1C`, the IC50 at Acetylcholinesterase [2] came out at 2.96 nM; against Acetylcholinesterase [3] it was 1.14 nM.

As to `NCCCCCCCCCNc1c2c(nc3cc(Cl)ccc13)CCCC2`, the Ratio IC50 in assay [5] was 30; in assay [1], 50. Besides, the inhibition entry in assay [4] was “Active”. Moreover, the IC50 was 1.22 nM against Acetylcholinesterase [2] and 0.604 nM against Acetylcholinesterase [3].

As for `Cc1cccc(Nc2ccccc2C(=O)NCCCC(=O)NCCCCNc2c3c(nc4cc(Cl)ccc24)CCCC3)c1C`, the results for the IC50 on Acetylcholinesterase [2] and at Acetylcholinesterase [3] were 12.4 nM and 13.6 nM, respectively.

For the compound `Cc1cccc(Nc2ccccc2C(=O)NCCCCCC(=O)NCCCCNc2c3c(nc4cc(Cl)ccc24)CCCC3)c1C`, the IC50 at Acetylcholinesterase [2] is 0.299 nM; on Acetylcholinesterase [3], 37.4 nM.

Take `NCCCCCCCCCCCCNc1c2c(nc3cc(Cl)ccc13)CCCC2`: the results for the Ratio IC50 in assay [5] and in assay [1] were 30 and 50, respectively. Further, the concentration for half-maximal inhibition (IC50) against Acetylcholinesterase [2] was 1.44 nM; at Acetylcholinesterase [3], 0.648 nM.

`NCCCCNc1c2c(nc3cc(Cl)ccc13)CCCC2`: the IC50 against Acetylcholinesterase [2] came to 65.8 nM; against Acetylcholinesterase [3] it was 38 nM.

As to `CCCCCCNc1c2c(nc3cc(Cl)ccc13)CCCC2`, the Ratio IC50 in assay [1] was < 5. In addition, the IC50 on Acetylcholinesterase [2] was 26.2 nM; on Acetylcholinesterase [3] it was 65.3 nM.

`Cc1cccc(Nc2ccccc2C(=O)NCCCC(=O)NCCCCCCCNc2c3c(nc4cc(Cl)ccc24)CCCC3)c1C`: the IC50 on Acetylcholinesterase [2] was 6.55 nM; at Acetylcholinesterase [3] it was 7.91 nM.

As for `OCCCCCNc1c2c(nc3cc(Cl)ccc13)CCCC2`, the IC50 at Acetylcholinesterase [2] was 1520 nM; on Acetylcholinesterase [3], 72.5 nM.

As for `Cc1cccc(Nc2ccccc2C(=O)NCCCC(=O)NCCCCCCNc2c3c(nc4cc(Cl)ccc24)CCCC3)c1C`, the IC50 on Acetylcholinesterase [2] worked out at 15.6 nM; on Acetylcholinesterase [3] it was 41.7 nM.

In the case of `CCCCCCCCCCNc1c2c(nc3cc(Cl)ccc13)CCCC2`, in assay [1], the Ratio IC50 worked out at 10. The IC50 came out at 252 nM against Acetylcholinesterase [2] and 5.17 nM on Acetylcholinesterase [3].

With `Cc1cccc(Nc2ccccc2C(=O)NCCCCCCCCCNc2c3c(nc4cc(Cl)ccc24)CCCC3)c1C`, the IC50 at Acetylcholinesterase [2] is 6.72 nM; at Acetylcholinesterase [3], 6.94 nM.

As to `CCCCCCCCCNc1c2c(nc3cc(Cl)ccc13)CCCC2`, the Ratio IC50 in assay [1] amounted to 20. For the same compound, the IC50 stood at 16.9 nM against Acetylcholinesterase [2] and 2.27 nM at Acetylcholinesterase [3].

For the compound `Cc1cccc(Nc2ccccc2C(=O)NCCCCCCCCNc2c3c(nc4cc(Cl)ccc24)CCCC3)c1C`, the IC50 against Acetylcholinesterase [2] stood at 1.49 nM; against Acetylcholinesterase [3], 0.495 nM.

As for `Cc1cccc(Nc2ccccc2C(=O)NCCCCCCNc2c3c(nc4cc(Cl)ccc24)CCCC3)c1C`, the IC50 on Acetylcholinesterase [2] amounted to 1.02 nM; against Acetylcholinesterase [3] it was 7230 nM.

As to `OCCCCCCNc1c2c(nc3cc(Cl)ccc13)CCCC2`, the inhibition entry in assay [4] was “Active”. In addition, the IC50 was found to be 2.47 nM on Acetylcholinesterase [2] and 42.4 nM against Acetylcholinesterase [3].

On to `NCCCCCNc1c2c(nc3cc(Cl)ccc13)CCCC2`, for which the IC50 came out at 938 nM against Acetylcholinesterase [2] and 51 nM against Acetylcholinesterase [3].

Take `NCCCCCCNc1c2c(nc3cc(Cl)ccc13)CCCC2`: the inhibition result in assay [4] was “Active”. The IC50 turned out to be 7.85 nM against Acetylcholinesterase [2] and 11.1 nM against Acetylcholinesterase [3].

`Cc1cccc(Nc2ccccc2C(=O)NCCCCCCCNc2c3c(nc4cc(Cl)ccc24)CCCC3)c1C`: the half-maximal inhibitory concentration (IC50) was 29.8 nM against Acetylcholinesterase [2] and 1380 nM on Acetylcholinesterase [3].

As for `Cc1cccc(Nc2ccccc2C(=O)NCCC(=O)NCCCCCCCNc2c3c(nc4cc(Cl)ccc24)CCCC3)c1C`, the IC50 was 10 nM at Acetylcholinesterase [2] and 6.67 nM at Acetylcholinesterase [3].

As for `Cc1cccc(Nc2ccccc2C(=O)NCCCCCC(=O)NCCCCCCNc2c3c(nc4cc(Cl)ccc24)CCCC3)c1C`, the IC50 at Acetylcholinesterase [2] was determined as 7.39 nM; on Acetylcholinesterase [3] it was 2.94 nM.

Turning to `Cc1cccc(Nc2ccccc2C(=O)NCCC(=O)NCCCCNc2c3c(nc4cc(Cl)ccc24)CCCC3)c1C`, the IC50 turned out to be 33 nM against Acetylcholinesterase [2] and 2470 nM on Acetylcholinesterase [3].

Consider `Cc1cccc(Nc2ccccc2C(=O)NCCCCCC(=O)NCCCCCCCNc2c3c(nc4cc(Cl)ccc24)CCCC3)c1C`, for which the values for the IC50 at Acetylcholinesterase [2] and on Acetylcholinesterase [3] were 13.4 nM and 11.1 nM, respectively.

As for `NCCCCCCCCNc1c2c(nc3cc(Cl)ccc13)CCCC2`, the Ratio IC50 in assay [1] amounted to 50. For the same compound, the IC50 against Acetylcholinesterase [2] was 293 nM; on Acetylcholinesterase [3], 1.14 nM.

Consider `NCCCCCCCNc1c2c(nc3cc(Cl)ccc13)CCCC2`, for which the figures for the IC50 at Acetylcholinesterase [2] and at Acetylcholinesterase [3] were 15.1 nM and 5.37 nM, respectively.

Source of the values: ChEMBL document CHEMBL2390919, “Investigation of the role of linker moieties in bifunctional tacrine hybrids” (Bioorg Med Chem, 2013).
